The values that follow come from patent US20200384134A1, “IMAGING METHOD OF AMPA RECEPTORS IN BRAIN OF PRIMATE ORGANISM, PROGRAM, DIAGNOSTIC AGENT, COMPANION DIAGNOSTIC AGENT, DRUG, SCREENING METHOD, INPUT TERMINAL, SERVER AND SYSTEM” (Public University Corporation Yokohama City University, priority 2017, published 2020).

One data set relates to AMPA receptors. The data set can be described thus: AMPA receptor binding test (electrophysiological verification) in vitro. The data set is classed as cell-based. As to conditions: FIG. 5.
In data set [1] the test system is WKY rat which was the depression model rat. The data set can be described thus: Forced swimming test using rat. As to conditions: FIG. 10. The data set is classed as in vivo. As for the experimental part:
In a forced swimming test, AMPA receptor-binding compounds K-2 and K-4 were dissolved in 100% DMSO (Nacalai Tesque, Inc. Japan) so as to have a concentration of 2.1 mM, were diluted with saline immediately before being administered (15% DMSO, 320 μM) and were intravenously administered to the rat with an administered amount of 5 μl/weight (g) such that the administered amount fell within a range of 1 mg/kg to 1.5 mg/kg.
In all animal experiments, the deliberation and the approval of the animal experiment committee in Yokohama City University were received (approval number: F-A-15-051). As rats, adult male Wistar rats which were 6 to 10 weeks old and Wistar Kyoto rats (WKY rats) which were depression model rats (Charles River, Japan) were used. In order to acquire a route for the repeated administration of K-2, a jugular vein cannula indwelling surgery was performed a week before the experiment. The rat was made to fall sleep with isoflurane (DS Pharma Animal Health, Japan), and thereafter, while anesthesia was maintained at an isoflurane concentration of 1.5% (air 2 L/minute), the jugular vein cannula indwelling surgery was performed. The skin of a neck was incised about 3 cm such that subcutaneous fat was opened, and thus a jugular vein was exposed. […]

For data set [2], the system named is AMPA receptors in the brain. The data set can be described thus: PET imaging in humans (healthy persons). The data set is classed as in vivo, human. Conditions: about 370 MBq i.v. As for the experimental part:
PET imaging was performed on two human subjects. […] Absorption correction CT imaging was performed for about one minute, and then [^11C] K-2 of about 370 MBq was administered, as a PET drug, intravenously over one minute. Thereafter, imaging was performed for 120 minutes. For the imaging, a PET/CT device “Aquiduo” (Toshiba Medical Systems Corporation) was used. In list data which was collected, dynamic images were reconstructed by an OS-EM method.
The reconstructed image was analyzed with the PMOD image analysis software (PMOD technologies) by integrating VOIs including a plurality of regions of frontal lobe, dentate cortex, hippocampus, amygdala, putamen, cerebellum, bridge and the like with one formed on a template MRI image. […]
The reconstructed image was analyzed with the PMOD image analysis software (PMOD technologies) by integrating VOIs including a plurality of regions of frontal lobe, dentate cortex, hippocampus, amygdala, putamen, cerebellum, bridge and the like with one formed on a template MRI image. As a calculation value used in quantitative determination, % SUV (% of standardized uptake value) was used. […]

Regarding `CN(C)C(=O)COc1c(F)cc(SCCN(C)S(=O)(=O)c2ccccc2)cc1F` [Compound K-4, {4-[2-(benzenesulfonyl-methyl-amino)-ethylsulfanil]-2,6-difluoro-phenoxy}-N,N-dimethyl-acetamide], the “binding affinity to the AMPA receptors” value in the data set on AMPA receptors is recorded as “indicated binding affinity”. The “immobile time, K-4 compared with K-2” value in data set [1] (chronic administration, 1 mg/kg) is on record as “significantly lowers the immobile time instead of K-2”. Moreover, the “immobile time, chronic administration experiment” value in data set [1] (i.v. for 7 days, 1 mg/kg to 1.5 mg/kg, compared with 15% DMSO) is recorded as “significantly lowered”.
Turning to `[11CH3]N(CCSc1cc(F)c(OCC(N)=O)c(F)c1)S(=O)(=O)c1ccccc1` [[^11C] K-2, [4-[2-(benzenesulfonyl-[^11C]methyl-amino)-ethylsulfanyl]-2,6-difluorophenoxy]-acetamide], the “nonspecific accumulation caused by PET drug not bound to the AMPA receptors in the brain” value in data set [2] (between 30 and 60 minutes after administration, two human subjects) is recorded as “remarkably washed out”. Also, the “uptake into the brain” value in data set [2] (healthy men, average 50 to 120 minutes, FIG. 12) is given as “high”.
